Data on five compounds can be found in patent US5010089A, “CCK antagonists and their use in treating gastrointestinal disorders” (Biomeasure, Inc., priority 1989, dated 1991).

One assay concerns the target T1, Pancreatic CCK Receptor (Rattus norvegicus, UniProt P30551).
T1 construct: the pancreas or cerebral was removed and homogenized; from tissue; host or cells: pancreas of male Sprague-Dawley rats, membrane preparation
T1 sequence (P30551 1-444): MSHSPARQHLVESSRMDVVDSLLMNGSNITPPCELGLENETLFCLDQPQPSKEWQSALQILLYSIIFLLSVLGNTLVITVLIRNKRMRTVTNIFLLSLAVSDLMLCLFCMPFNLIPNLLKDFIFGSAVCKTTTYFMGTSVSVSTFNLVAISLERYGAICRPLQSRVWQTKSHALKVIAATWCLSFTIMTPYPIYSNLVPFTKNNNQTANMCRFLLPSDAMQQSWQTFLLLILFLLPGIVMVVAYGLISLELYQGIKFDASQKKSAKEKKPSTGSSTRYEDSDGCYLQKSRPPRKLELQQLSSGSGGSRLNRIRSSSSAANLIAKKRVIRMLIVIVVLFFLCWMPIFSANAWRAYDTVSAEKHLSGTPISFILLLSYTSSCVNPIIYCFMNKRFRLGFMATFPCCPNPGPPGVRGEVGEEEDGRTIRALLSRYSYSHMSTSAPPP
As to the kind of experiment: [125I]CCK8 binding assay, pancreatic membranes. Also on record: species or system Sprague-Dawley rats. As to conditions: [125I]CCK8 0.05 nM, rat pancreas membranes, 90 min, 25° C. On the procedure: Inhibition studies of CCK by specific compounds of the present invention were carried out as follows. Male, Sprague-Dawley rats were sacrificed by decapitation and the pancreas or cerebral was removed and homogenized with a Brinkman Polytron (setting 6, 15 sec). The homogenates were centrifuged twice at 39,000 g for 10 min (4° C.), with an intermediate resuspension in fresh buffer. The final pellets were resuspended in the following buffer for the [^125 I]CCK8 binding assay: 10 mM HEPES, 118 mM NaCL, 4.7 mM KCl, and 5 mM MgCL2, 1 mM EGTA, 5 mg/ml bovine serum albumin, and 0.25 mg/ml bacitracin.
For the [^125 I]CCK8 binding assay, aliquots of the membrane preparations were added to plastic culture tubes containing 0.05 nM [^125 I]CCK8 (2200 Ci/mmol, New England Nulclear Corp ) and various concentrations of the test compounds in a final volume of 0.5 ml. The incubation period was 90 min (25° C.). The binding reaction was terminated by the addition of 4 ml of ice-cold buffer, followed by filtration through Whatman GF/B filters which had been previously soaked in 2% bovine serum albumin. Each tube and filter were then washed three times with 4-ml aliquots of ice-cold buffer. The radioactivity trapped on the filters was counted in an LKB Clini Gamma counter. Specific binding was defined as the total [^125 I]CCK8 bound minus that bound in the presence of 1 μM unlabeled CCK8.
Table 1 sets forth data from inhibition studies of CCK by specific compounds of the present invention in which Ar, m, and A are defined as set forth below: […]

The test system of a further assay is gastric emptying. Put plainly: anti-spasmodic activity: effect on gastric emptying (charcoal meal) after CCK-8 in mice. It is filed as in vivo, CF1 mice. The settings on record: for ED50: Mus musculus, anti-spasmodic activity. On the procedure:
In vivo studies were made to test the therapeutic effect of α-N-(2-indolylcarbonyl) L-tryptyl-N'-phenylethylglycine (BIM-18216),α-N-(3-quinolylcarbonyl)-L-tryptyl-N'-phenylethylglycine (BIM-18225), α-N-(2-naphthylcarbonyl)-L-tryptyl-N'-phenylethylglycine (BIM-18226), and α-N-(2-indolylcarbonyl) D-tryptyl-N'-phenylethylglycine (BIM-18227). The effect of the foregoing compounds on gastric emptying was measured as the percentage of anti-spasmodic activity. Tests were carried out on female CF1 mice as follows. Mice weighing approximately 20 g were fasted overnight. Test compounds were administered in one of four ways: intraperitoneally (i.p.), subcutaneously (s.c.), intravenously (i.v.), or orally (p.o.). Test compounds administered orally were dissolved in a mixture of 75% by volume polyethylene glycol 400 NF, 15% by volume propylene glycol USP, and 10% by volume purified H2 O USP. For other methods of administration, the test compounds were dissolved in a solution of saline containing 10% DMSO (by volume) for i.v. administration; and in a solution of saline containing 10% DMSO (by volume) and 0.25% methylcellulose (by weight) for s.c. or i.p. administration. Test compounds were administered to the mice 15 minutes prior to administering CCK-8 (40 μg/kg, s.c.). The mice were fed a charcoal meal orally 5 minutes after CCK injection and the animals were sacrificed 5 minutes later. The lengths of the intestines filled with charcoal were measured and the % of anti-spasmodic activity was calculated based upon the lengths according to the following formula: [formula]
Table 2, below, contains data on the anti-spasmodic activity of the compounds tested by oral administration.
Table 3, below, contains data for the test compound BIM-18216 administered in each of the four different ways discussed above.

[1] abbreviates: Table 2, 125 mg/kg p.o., 15 min before CCK-8 (40 μg/kg, s.c.), 125 mg/kg.
Where [2] appears, read: Table 2, 125 mg/kg p.o., 15 min before CCK-8 (40 μg/kg, s.c.).
Where [3] appears, read: Table 2, 100 mg/kg p.o., 15 min before CCK-8 (40 μg/kg, s.c.).

Regarding `O=C(O)CN(CCc1ccccc1)C(=O)C(Cc1c[nH]c2ccccc12)NC(=O)c1ccc2ccccc2n1` [2-quinolyl, α-N-(2 quinolylcarbonyl) L-tryptyl-N'-phenylethylglycine], the IC50 (as a rule, the midpoint of a concentration-inhibition curve) at Pancreatic CCK Receptor was found to be 170 nM.

Consider `O=C(O)CN(CCc1ccccc1)C(=O)C(Cc1c[nH]c2ccccc12)NC(=O)c1cc2ccccc2[nH]1` [BIM-18216, α-N-(2-indolylcarbonyl) L-tryptyl-N'-phenylethylglycine], for which the ED50 (commonly the midpoint of the dose-response relation) in the assay on gastric emptying (ip) amounted to 5.8 mg/kg; with gastric emptying (iv), 6.6 mg/kg; in the assay on gastric emptying (po), 96.7 mg/kg; in the assay on gastric emptying (sc), 4.5 mg/kg. In addition, the “% Anti-Spasmodic Activity” value in the assay with gastric emptying (setting [1]) worked out at 78%; in the assay on gastric emptying (Table 3, 1 mg/kg i.p., 15 min before CCK-8), 1%; in the assay with gastric emptying (Table 3, 1 mg/kg s.c., 15 min before CCK-8), 1%; in the assay on gastric emptying (Table 3, 5 mg/kg i.p., 15 min before CCK-8), 45%; with gastric emptying (Table 3, 5 mg/kg i.v., 15 min before CCK-8) it was 36%; with gastric emptying (Table 3, 5 mg/kg s.c., 15 min before CCK-8), 53%. For the same compound, the “% Anti-Spasmodic Activity” value in the assay with gastric emptying (Table 3, 10 mg/kg i.v., 15 min before CCK-8) came to 70%; in the assay on gastric emptying (Table 3, 10 mg/kg s.c., 15 min before CCK-8), 75%; in the assay with gastric emptying (Table 3, 25 mg/kg i.p., 15 min before CCK-8), 91%; with gastric emptying (Table 3, 25 mg/kg i.v., 15 min before CCK-8) it was 123%; with gastric emptying (Table 3, 25 mg/kg s.c., 15 min before CCK-8) it was 108%; in the assay on gastric emptying (Table 3, 50 mg/kg p.o., 15 min before CCK-8) it was 10%. Further, the “% Anti-Spasmodic Activity” value is 112% in the assay on gastric emptying (Table 3, 50 mg/kg s.c., 15 min before CCK-8); 47% in the assay on gastric emptying (Table 3, 75 mg/kg p.o., 15 min before CCK-8); 56% with gastric emptying (Table 3, 100 mg/kg p.o., 15 min before CCK-8); 81% in the assay on gastric emptying (Table 3, 125 mg/kg p.o., 15 min before CCK-8); 88% with gastric emptying (Table 3, 250 mg/kg p.o., 15 min before CCK-8); 105% in the assay on gastric emptying (Table 3, 500 mg/kg p.o., 15 min before CCK-8).

Take `O=C(O)CN(CCc1ccccc1)C(=O)C(Cc1c[nH]c2ccccc12)NC(=O)c1cnc2ccccc2c1` [BIM-18225, α-N-(3-quinolylcarbonyl)-L-tryptyl-N'-phenylethylglycine]: the “% Anti-Spasmodic Activity” value in the assay on gastric emptying (setting [2]) is 22%.

Turning to `O=C(O)CN(CCc1ccccc1)C(=O)C(Cc1c[nH]c2ccccc12)NC(=O)c1ccc2ccccc2c1` [BIM-18226, α-N-(2-naphthylcarbonyl)-L-tryptyl-N'-phenylethylglycine], the IC50 at Pancreatic CCK Receptor stood at 500 nM. The results for the “% Anti-Spasmodic Activity” value in the assay on gastric emptying (setting [3]) and in the assay with gastric emptying (setting [2]) were 35% and 88%, respectively.

As for `O=C(O)CN(CCc1ccccc1)C(=O)C(Cc1c[nH]c2ccccc12)NC(=O)c1cc2ccccc2[nH]1` [BIM-18227, α-N-(2-indolylcarbonyl) D-tryptyl-N'-phenylethylglycine], the IC50 on Pancreatic CCK Receptor worked out at 30 nM. Besides, the “% Anti-Spasmodic Activity” value in the assay on gastric emptying (setting [3]) amounted to 24%; in the assay with gastric emptying (setting [1]), 60%.
